Legend:
Format in all cases: in vivo
[1] = test system: purple nutsedge (Cyperus rotundus); test: Test B pre-/postemergence; set-up: key: 0 is no effect; 10 is complete control
Summary of the method: (§1)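 Scored visually 0 (none) to 10 (complete control) against untreated plants after twelve to sixteen greenhouse days. Test chemicals, formulated in surfactant-containing non-phytotoxic solvent, applied to soil after planting and, separately, onto 1- to 4-leaf (2–18 cm) plants.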

wild oat (Avena fatua) = test: Test B pre-/postemergence; set-up: key: 0 is no effect; 10 is complete control
Summary of the method: as §1

[2] = test system: bamyardgrass (Echinochloa crus-galli); test: Test B flood test; set-up: key: 0 is no effect; 10 is complete control
Summary of the method: (§2)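 Flood test on plants grown to the 2-leaf stage; treated plants kept in greenhouse twelve to sixteen days, then visually rated against controls on a 0 (no effect) to 10 (complete control) scale.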

[3] = test system: duck salad (Heteranthera limosa); test: Test B flood test; set-up: key: 0 is no effect; 10 is complete control
Summary of the method: as §2

rice (Oryza sativa) = test: Test B flood test; set-up: key: 0 is no effect; 10 is complete control
Summary of the method: as §2

[4] = test system: smallflower flatsedge (Cyperus difformis); test: Test B flood test; set-up: key: 0 is no effect; 10 is complete control
Summary of the method: as §2

[5] = test system: common ragweed (Ambrosia elatior); test: Test C; set-up: key: 0 was no effect; 100 was complete control; settings: PREEMERGENCE
[6] = test system: cotton (Gossypium hirsutum); test: Test C; set-up: key: 0 was no effect; 100 was complete control; settings: PREEMERGENCE
[7] = test system: eastern black nightshade (Solanum ptycanthum); test: Test C; set-up: key: 0 was no effect; 100 was complete control; settings: PREEMERGENCE
[8] = test system: fall panicum (Panicum dichotomiflorum); test: Test C; set-up: key: 0 was no effect; 100 was complete control; settings: PREEMERGENCE
[9] = test system: field bindweed (Convolvulus arvensis); test: Test C; set-up: key: 0 was no effect; 100 was complete control; settings: PREEMERGENCE
[10] = test system: giant foxtail (Setaria faberii); test: Test C; set-up: key: 0 was no effect; 100 was complete control; settings: PREEMERGENCE
[11] = test system: lambsquarters (Chenopodium album); test: Test C; set-up: key: 0 was no effect; 100 was complete control; settings: PREEMERGENCE
[12] = test system: redroot pigweed (Amaranthus retroflexus); test: Test C; set-up: key: 0 was no effect; 100 was complete control; settings: PREEMERGENCE
soybean (Glycine max) = test: Test C; set-up: key: 0 was no effect; 100 was complete control; settings: PREEMERGENCE
[13] = test system: surinam grass (Brachiaria decumbens); test: Test C; set-up: key: 0 was no effect; 100 was complete control; settings: PREEMERGENCE
[14] = test system: wild poinsettia (Euphorbia heterophylla); test: Test C; set-up: key: 0 was no effect; 100 was complete control; settings: PREEMERGENCE
[15] = Preemergence, Rate 62 g/ha, scale of 0 to 10
[16] = Rate 62 g/ha, Postemergence (flood test)
[17] = Rate 125 g/ha, Postemergence section (flood test species)
[18] = Rate 250 g/ha, Postemergence (flood test species)
[19] = Rate 500 g/ha, Postemergence (flood test species)
[20] = Rate 125 g/ha, Postemergence, flood test

Structure (SMILES): Cc1cnc(-n2ccc(C(F)(F)F)n2)nc1C(=O)c1cccc(OC(F)(F)F)c1 [Compound 66]
- Plant response rating, Nutsedge [1, 15]: 0
- Nutsedge plant response rating ([1]; Rate 62 g/ha, Postemergence): 0
- Nutsedge plant response rating ([1]; Rate 125 g/ha, Postemergence): 1
- Plant response rating, Nutsedge ([1]; Rate 250 g/ha, Postemergence): 1
- Plant response rating, Nutsedge ([1]; Rate 500 g/ha, Postemergence): 1
- Plant response rating, Nutsedge ([1]; Rate 500 g/ha, Preemergence): 0
- Plant response rating, Wild oats (wild oat (Avena fatua); [15]): 2
- Wild oats plant response rating (wild oat (Avena fatua); Rate 62 g/ha, Postemergence): 2
- Wild oats plant response rating (wild oat (Avena fatua); Rate 125 g/ha, Postemergence): 2
- Plant response rating, Wild oats (wild oat (Avena fatua); Rate 125 g/ha, Preemergence): 4
- Plant response rating, Wild oats (wild oat (Avena fatua); Rate 250 g/ha, Postemergence): 2
- Plant response rating, Wild oats (wild oat (Avena fatua); Rate 250 g/ha, Preemergence): 5
- Plant response rating, Wild oats (wild oat (Avena fatua); Rate 500 g/ha, Postemergence): 3
- Plant response rating, Wild oats (wild oat (Avena fatua); Rate 500 g/ha, Preemergence): 5
- Barnyardgrass plant response rating [2, 16]: 3
- Barnyardgrass plant response rating [2, 17]: 3
- Plant response rating, Barnyardgrass [2, 18]: 4
- Plant response rating, Barnyardgrass [2, 19]: 4
- Ducksalad plant response rating [3, 16]: 2
- Ducksalad plant response rating [3, 17]: 3
- Plant response rating, Ducksalad [3, 18]: 5
- Plant response rating, Ducksalad [3, 19]: 7
- Rice plant response rating (rice (Oryza sativa); [16]): 0
- Rice plant response rating (rice (Oryza sativa); [17]): 1
- Plant response rating, Rice (rice (Oryza sativa); [18]): 1
- Plant response rating, Rice (rice (Oryza sativa); [19]): 2
- S. Flatsedge plant response rating [4, 16]: 6
- S. Flatsedge plant response rating [4, 17]: 8
- Plant response rating, S. Flatsedge [4, 18]: 8
- Plant response rating, S. Flatsedge [4, 19]: 9
- Plant response rating, Common ragweed ([5]; Rate 35 g/ha): 0
- Plant response rating, Common ragweed ([5]; Rate 70 g/ha): 0
- Plant response rating, Common ragweed ([5]; Rate 140 g/ha): 30
- Plant response rating, Cotton ([6]; Rate 35 g/ha): 0
- Plant response rating, Cotton ([6]; Rate 70 g/ha): 0
- Plant response rating, Cotton ([6]; Rate 140 g/ha): 0
- Plant response rating, E. blacknightsh ([7]; Rate 35 g/ha): 0
- Plant response rating, E. blacknightsh ([7]; Rate 70 g/ha): 10
- Plant response rating, E. blacknightsh ([7]; Rate 140 g/ha): 30
- Plant response rating, Fall panicum ([8]; Rate 35 g/ha): 80
- Plant response rating, Fall panicum ([8]; Rate 70 g/ha): 80
- Plant response rating, Fall panicum ([8]; Rate 140 g/ha): 100
- Plant response rating, Field bindweed ([9]; Rate 35 g/ha): 40
- Plant response rating, Field bindweed ([9]; Rate 70 g/ha): 80
- Plant response rating, Field bindweed ([9]; Rate 140 g/ha): 90
- Plant response rating, Giant foxtail ([10]; Rate 35 g/ha): 0
- Plant response rating, Giant foxtail ([10]; Rate 70 g/ha): 0
- Plant response rating, Giant foxtail ([10]; Rate 140 g/ha): 0
- Plant response rating, Lambsquarters ([11]; Rate 35 g/ha): 0
- Plant response rating, Lambsquarters ([11]; Rate 70 g/ha): 0
- Plant response rating, Lambsquarters ([11]; Rate 140 g/ha): 100
- Plant response rating, Redroot pigweed ([12]; Rate 35 g/ha): 100
- Plant response rating, Redroot pigweed ([12]; Rate 70 g/ha): 100
- Plant response rating, Redroot pigweed ([12]; Rate 140 g/ha): 100
- Plant response rating, Soybean (soybean (Glycine max); Rate 35 g/ha): 0
- Plant response rating, Soybean (soybean (Glycine max); Rate 70 g/ha): 0
- Plant response rating, Soybean (soybean (Glycine max); Rate 140 g/ha): 0
- Plant response rating, Surinam grass ([13]; Rate 35 g/ha): 5
- Plant response rating, Surinam grass ([13]; Rate 70 g/ha): 5
- Plant response rating, Surinam grass ([13]; Rate 140 g/ha): 20
- Plant response rating, Wild poinsettia ([14]; Rate 35 g/ha): 0
- Plant response rating, Wild poinsettia ([14]; Rate 70 g/ha): 0
- Plant response rating, Wild poinsettia ([14]; Rate 140 g/ha): 0

Structure (SMILES): Cc1cnc(-n2ccc(C(F)(F)F)n2)nc1Cc1cccc(C(F)(F)F)c1 [Example 2, 5-methyl-4-[[3-(trifluoromethyl)phenyl]methyl]-2-[3-(trifluoromethyl)-1H-pyrazol-1-yl]pyrimidine]
- Plant response rating, Nutsedge ([1]; Rate 62 g/ha, Postemergence): 0
- Nutsedge plant response rating ([1]; Rate 62 g/ha, Preemergence): 0
- Plant response rating, Nutsedge ([1]; Rate 125 g/ha, Postemergence): 0
- Nutsedge plant response rating ([1]; Rate 125 g/ha, Preemergence): 0
- Plant response rating, Nutsedge ([1]; Rate 250 g/ha, Preemergence): 0
- Plant response rating, Nutsedge ([1]; Rate 500 g/ha, Postemergence): 2
- Plant response rating, Nutsedge ([1]; Rate 500 g/ha, Preemergence): 0
- Plant response rating, Wild oats (wild oat (Avena fatua); Rate 62 g/ha, Postemergence): 3
- Wild oats plant response rating (wild oat (Avena fatua); Rate 62 g/ha, Preemergence): 6
- Plant response rating, Wild oats (wild oat (Avena fatua); Rate 125 g/ha, Postemergence): 3
- Wild oats plant response rating (wild oat (Avena fatua); Rate 125 g/ha, Preemergence): 9
- Plant response rating, Wild oats (wild oat (Avena fatua); Rate 250 g/ha, Postemergence): 6
- Plant response rating, Wild oats (wild oat (Avena fatua); Rate 250 g/ha, Preemergence): 9
- Plant response rating, Wild oats (wild oat (Avena fatua); Rate 500 g/ha, Postemergence): 7
- Plant response rating, Wild oats (wild oat (Avena fatua); Rate 500 g/ha, Preemergence): 10
- Plant response rating, Barnyardgrass [2, 16]: 3
- Plant response rating, Barnyardgrass [2, 20]: 4
- Plant response rating, Barnyardgrass [2, 18]: 5
- Plant response rating, Barnyardgrass [2, 19]: 6
- Plant response rating, Ducksalad [3, 16]: 0
- Plant response rating, Ducksalad [3, 20]: 0
- Plant response rating, Ducksalad [3, 18]: 2
- Plant response rating, Ducksalad [3, 19]: 2
- Plant response rating, Rice (rice (Oryza sativa); [16]): 3
- Plant response rating, Rice (rice (Oryza sativa); [20]): 4
- Plant response rating, Rice (rice (Oryza sativa); [18]): 5
- Plant response rating, Rice (rice (Oryza sativa); [19]): 6
- Plant response rating, S. Flatsedge [4, 16]: 3
- Plant response rating, S. Flatsedge [4, 20]: 5
- Plant response rating, S. Flatsedge [4, 18]: 8
- Plant response rating, S. Flatsedge [4, 19]: 9
- Plant response rating, Common ragweed ([5]; Rate 35 g/ha): 0
- Plant response rating, Common ragweed ([5]; Rate 70 g/ha): 0
- Plant response rating, Common ragweed ([5]; Rate 140 g/ha): 50
- Plant response rating, Cotton ([6]; Rate 35 g/ha): 0
- Plant response rating, Cotton ([6]; Rate 70 g/ha): 5
- Plant response rating, Cotton ([6]; Rate 140 g/ha): 15
- Plant response rating, E. blacknightsh ([7]; Rate 35 g/ha): 5
- Plant response rating, E. blacknightsh ([7]; Rate 70 g/ha): 5
- Plant response rating, E. blacknightsh ([7]; Rate 140 g/ha): 90
- Plant response rating, Fall panicum ([8]; Rate 35 g/ha): 0
- Plant response rating, Fall panicum ([8]; Rate 70 g/ha): 5
- Plant response rating, Fall panicum ([8]; Rate 140 g/ha): 100
- Plant response rating, Field bindweed ([9]; Rate 35 g/ha): 0
- Plant response rating, Field bindweed ([9]; Rate 70 g/ha): 30
- Plant response rating, Field bindweed ([9]; Rate 140 g/ha): 100
- Plant response rating, Giant foxtail ([10]; Rate 35 g/ha): 0
- Plant response rating, Giant foxtail ([10]; Rate 70 g/ha): 5
- Plant response rating, Giant foxtail ([10]; Rate 140 g/ha): 100
- Plant response rating, Lambsquarters ([11]; Rate 35 g/ha): 0
- Plant response rating, Lambsquarters ([11]; Rate 140 g/ha): 100
- Plant response rating, Redroot pigweed ([12]; Rate 35 g/ha): 5
- Plant response rating, Redroot pigweed ([12]; Rate 70 g/ha): 5
- Plant response rating, Redroot pigweed ([12]; Rate 140 g/ha): 100
- Plant response rating, Soybean (soybean (Glycine max); Rate 35 g/ha): 0
- Plant response rating, Soybean (soybean (Glycine max); Rate 70 g/ha): 0
- Plant response rating, Soybean (soybean (Glycine max); Rate 140 g/ha): 40
- Plant response rating, Surinam grass ([13]; Rate 35 g/ha): 0
- Plant response rating, Surinam grass ([13]; Rate 70 g/ha): 10
- Plant response rating, Surinam grass ([13]; Rate 140 g/ha): 35
- Plant response rating, Wild poinsettia ([14]; Rate 35 g/ha): 0
- Plant response rating, Wild poinsettia ([14]; Rate 70 g/ha): 5
- Plant response rating, Wild poinsettia ([14]; Rate 140 g/ha): 45
